Laboratory results taken from patent publication US20030054520A1, “Recombinant enzymes having improved NAD (H) affinity” (DEGUSSA AG, priority 2000, published 2003).

Tested on: G38D mutein
Assay: Substrate spectrum: photometric reduction of keto substrates with NADH
Type: biochemical
Settings: relative to acetophenone; 10 mM keto substrate, 0.4 mM NADH, pH 7.0, 30° C.
Experimental: It is known that the NADP(H)-dependent wild-type enzyme can reduce numerous ketones, keto esters and other carbonyl-groupcontaining compounds stereospecifically. Hereinafter, only a few selected keto compounds are tested as substrates, in order to confirm that the substrate-recognition region has not been changed in principle by the change of coenzyme binding site. For this purpose the keto compounds are tested in the following mixture (total volume of 1 ml).
10 mM keto substrate; 1 MM MgCl2.6H2O; 0.4 mM NADH; 960 μl of triethanolamine buffer, 50 mM, pH 7.0; 10 μl of enzyme (G38D mutein); partly purified (phenylsepharose; see above).
The activity is determined photometrically at 340 nm (30° C.). The following table summarizes the activity values.

## CCCCCC(C)=O [2-Heptanone]
  Activity, relative: 207%

## CCCCC(C)=O [2-Hexanone]
  Activity, relative: 169%

## CC1CCCCC1=O (stereo not drawn) [2-Methylcyclohexanone]
  Activity, relative: 334%

## CCOC(=O)C(=O)CC [2-Oxobutyric acid ethyl ester]
  Activity, relative: 137%

## CCOC(=O)C(=O)C(C)C [3-Methyl-2-oxobutyric acid ethyl ester]
  Activity, relative: 84%

## CCC(=O)CC(=O)OC [3-Oxovaleric acid methyl ester]
  Activity, relative: 127%

## CCOC(=O)CC(=O)CCl [4-Chloroacetoacetic acid ethyl ester]
  Activity, relative: 228%

## CC(=O)c1ccc(Cl)cc1 [4-chloroacetophenone]
  Activity, relative: 68%

## CCOC(=O)CC(C)=O [Acetoacetic acid ethyl ester]
  Activity, relative: 88%

## COC(=O)CC(C)=O [Acetoacetic acid methyl ester]
  Activity, relative: 188%

## CC(=O)c1ccccc1 [Acetophenone]
  Activity, relative: 100%

## CCOC(=O)C(=O)CCc1ccccc1 [Benzyl pyruvate ethyl ester]
  Activity, relative: 13%

## COC(=O)C(=O)c1ccccc1 [Phenylglyoxylic acid methyl ester]
  Activity, relative: 10%

## CCOC(=O)C(C)=O [Pyruvic acid ethyl ester]
  Activity, relative: 260%

## COC(=O)C(C)=O [Pyruvic acid methyl ester]
  Activity, relative: 191%
